Among the data in patent US11702419B2, “Heterocyclic compound and use thereof” (Takeda Pharmaceutical Company Limited, priority 2018, dated 2023) are inhibition values, retold here.

The target of the test is T1, NMDA receptor composed of four subunits consisting of two sets of heterodimers of NR1 and NR2B (human GRIN1 and GRIN2B-expressing HEK293 cells) (Homo sapiens, UniProt Q13224).
T1 construct: host or cells: HEK293 (tetracycline-inducible expression)
T1 sequence (Q13224 27-1484, other chains not shown): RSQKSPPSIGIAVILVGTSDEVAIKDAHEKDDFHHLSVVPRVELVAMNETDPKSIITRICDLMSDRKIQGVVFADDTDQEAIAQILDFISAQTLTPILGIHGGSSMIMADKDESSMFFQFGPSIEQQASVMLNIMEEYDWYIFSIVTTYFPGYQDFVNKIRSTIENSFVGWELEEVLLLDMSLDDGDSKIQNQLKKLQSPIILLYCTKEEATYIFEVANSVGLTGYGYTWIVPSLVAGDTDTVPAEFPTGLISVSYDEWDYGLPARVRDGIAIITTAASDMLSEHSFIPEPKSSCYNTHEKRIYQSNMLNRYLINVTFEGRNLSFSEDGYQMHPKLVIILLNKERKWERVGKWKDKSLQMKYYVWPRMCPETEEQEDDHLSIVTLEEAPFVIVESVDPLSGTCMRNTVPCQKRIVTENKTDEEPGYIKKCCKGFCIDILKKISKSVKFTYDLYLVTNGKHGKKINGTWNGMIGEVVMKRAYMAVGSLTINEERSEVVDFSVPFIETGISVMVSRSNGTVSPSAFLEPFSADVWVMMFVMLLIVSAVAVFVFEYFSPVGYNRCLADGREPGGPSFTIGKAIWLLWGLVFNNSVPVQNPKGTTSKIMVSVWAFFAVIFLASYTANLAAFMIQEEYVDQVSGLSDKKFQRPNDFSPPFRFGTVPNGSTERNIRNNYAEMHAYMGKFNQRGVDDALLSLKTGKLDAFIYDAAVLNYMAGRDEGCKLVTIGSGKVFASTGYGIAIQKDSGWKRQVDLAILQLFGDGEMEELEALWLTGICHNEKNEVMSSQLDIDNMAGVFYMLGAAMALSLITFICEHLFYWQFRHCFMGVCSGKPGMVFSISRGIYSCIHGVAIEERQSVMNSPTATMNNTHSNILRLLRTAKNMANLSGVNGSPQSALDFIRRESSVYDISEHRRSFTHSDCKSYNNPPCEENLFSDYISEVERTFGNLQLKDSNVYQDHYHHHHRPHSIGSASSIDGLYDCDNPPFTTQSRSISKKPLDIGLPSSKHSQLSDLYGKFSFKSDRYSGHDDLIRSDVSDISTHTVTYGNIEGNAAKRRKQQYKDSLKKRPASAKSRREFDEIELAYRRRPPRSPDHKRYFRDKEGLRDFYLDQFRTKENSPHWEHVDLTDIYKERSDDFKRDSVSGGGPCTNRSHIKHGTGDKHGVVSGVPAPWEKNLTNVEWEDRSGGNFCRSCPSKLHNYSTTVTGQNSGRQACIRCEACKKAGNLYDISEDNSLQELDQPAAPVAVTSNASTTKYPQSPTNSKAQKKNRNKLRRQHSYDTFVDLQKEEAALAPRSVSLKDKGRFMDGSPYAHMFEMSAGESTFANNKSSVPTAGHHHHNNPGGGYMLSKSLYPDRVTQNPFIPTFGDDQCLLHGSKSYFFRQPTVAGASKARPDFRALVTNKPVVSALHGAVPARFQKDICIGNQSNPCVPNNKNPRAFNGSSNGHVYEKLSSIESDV
Nature of the test: NR2B Ca2+ influx assay. The following applies: 10 μM compound, glutamic acid/glycine-induced Ca2+ influx, FLIPR, read-out: inhibitory rate (10 μM compound concentration). It is filed as cell-based. The method, then: In order to confirm an “antagonistic action on an NMDA receptor containing the NR2B subunit” which the compound of the present invention has, inhibitory effect on the NMDA receptor activation was evaluated using “NMDA receptor composed of four subunits consisting of two sets of heterodimers of NR1 and NR2B”-expressing human fetal renal cells, specifically human glutamate ionotropic receptor NMDA type subunit 1 (GRIN1) and human glutamate ionotropic receptor NMDA type subunit 2B (GRIN2B)-expressing HEK293 cells.
As an index of the NMDA receptor activation, intracellular calcium ion (Ca^2+) influx caused by bonding of glycine and glutamate to NR1 and NR2B respectively was used. HEK293 cells were purchased from ChanTest. The cells were cultured in a DMEM/F-12 (COSMO BIO, 10-092-CM) medium containing 10% FBS (fetal bovine serum, AusGene), 100 units/mL penicillin, 100 μg/mL streptomycin, 500 μg/mL neomycin, 100 μg/mL Zeocin and 5 μg/mL Blasticidin at 37° C., 5% CO2. The cells were detached from flask with trypsin the day before the assay, suspended in a seeding medium (DMEM (Invitrogen, 31053) containing 10% FBS, 100 units/mL penicillin and 100 μg/mL streptomycin) at 8×10^5 cells/mL, seeded by 25 μL per well in a 384-well plate (Falcon, 356663) at 20000 cells/well, and cultured overnight in an incubator. On the day of the assay, tetracycline (Wako Pure Chemical Industries, 209-16561) was diluted with the seeding medium at 2 μg/mL, and the dilution was added at 25 μL/well to the plate seeded with the cells, and the cells were cultured for 2 hr in an incubator. Thereafter, the medium was removed, and the cells were washed with 50 μL/well of assay buffer (137 mM NaCl, 4 mM KCl, 1.8 mM CaCl2, 10 mM HEPES (pH 7.2), 10 mM Glucose, and 0.1% BSA). Then, a loading buffer (assay buffer containing 2.5 μM Fluo-4AM, 2 mM Amaranth and 1 mM Tartrazine) was added thereto at 25 μL/well, and loading was performed in the incubator for 30 min, and then at room temperature for 15 min. The test compound was diluted with the above-mentioned assay buffer so as to adjust the concentration to 30 μM, the obtained solution (25 μL) was added thereto (the final concentration 10 μM), and the cells were stood for 15 min at room temperature. Using FLIPR (Molecular Devices), 25 μL of an assay buffer containing 30 μM glutamic acid and 30 μM glycine was added thereto, and the fluorescence signal was measured every 3 seconds for 5 min. The relative activity value (inhibitory rate) was calculated when the cumulative total value of the fluorescence value of a well added with a buffer free of glutamic acid and glycine, relative to the cumulative total value of the fluorescence value of each well are regarded as 100% inhibition. The obtained value was evaluated as an inhibitory activity.
As for `Cc1nn2ncc(CNC(=O)c3cnc(OC(F)F)c(Cl)c3)c2n1C(F)F` [Example 75, 5-chloro-6-(difluoromethoxy)-N-{[1-(difluoromethyl)-2-methyl-1H-pyrazolo[1,5-b][1,2,4]triazol-7-yl]methyl}pyridine-3-carboxamide], the inhibition at 10 µM was 91%.
Under `CCOc1nn2ncccc2c1CNC(=O)c1cnc(OC(F)F)c(F)c1` [Example 24, 6-(difluoromethoxy)-N-((2-ethoxypyrazolo[1,5-b]pyridazin-3-yl)methyl)-5-fluoronicotinamide] stands 70%; under `O=C(NCc1cnn2ccncc12)c1ccc(OC(F)(F)F)c(F)c1` [Example 16, 3-fluoro-N-(pyrazolo[1,5-a]pyrazin-3-ylmethyl)-4-(trifluoromethoxy)benzamide], 97%; under `O=C(NCc1nnn2cc(F)ccc12)c1ccc(OC(F)(F)F)cc1` [Example 1, N-((6-fluoro[1,2,3]triazolo[1,5-a]pyridin-3-yl)methyl)-4-(trifluoromethoxy)benzamide], 94%.
For the compound `Cc1cnn2ncc(CNC(=O)c3ccc(OC(F)F)c(F)c3)c2c1` [Example 38, 4-(difluoromethoxy)-3-fluoro-N-((5-methylpyrazolo[1,5-b]pyridazin-3-yl)methyl)benzamide], the inhibition at 10 µM was 98%.
Under `Cc1cccn2nnc(CNC(=O)c3ccc(OC(F)F)c(Cl)c3)c12` [Example 3, 3-chloro-4-(difluoromethoxy)-N-((4-methyl[1,2,3]triazolo[1,5-a]pyridin-3-yl)methyl)benzamide] stands 76%; under `O=C(NCc1c(C2CC2)nn2ncccc12)c1cnc(OC(F)F)c(F)c1` [Example 28, N-((2-cyclopropylpyrazolo[1,5-b]pyridazin-3-yl)methyl)-6-(difluoromethoxy)-5-fluoronicotinamide], 85%; under `Cn1ccn2ncc(CNC(=O)c3ccc(C(F)(F)F)c(F)c3)c12` [Example 67, 3-fluoro-N-((1-methyl-1H-imidazo[1,2-b]pyrazol-7-yl)methyl)-4-(trifluoromethyl)benzamide], 98%.
Take `O=C(NCc1nnn2ccccc12)c1cnc(OC(F)F)c(F)c1` [Example 14, 6-(difluoromethoxy)-5-fluoro-N-([1,2,3]triazolo[1,5-a]pyridin-3-ylmethyl)nicotinamide]: the inhibition at 10 µM is 94%.
`CCc1nn2ncccc2c1CNC(=O)c1ccc(OC(F)F)c(F)c1` [Example 27, 4-(difluoromethoxy)-N-((2-ethylpyrazolo[1,5-b]pyridazin-3-yl)methyl)-3-fluorobenzamide]: the inhibition at 10 µM came to 92%.
Under `O=C(NCc1cnn2ncccc12)c1cnc(OC(F)F)c(Cl)c1` [Example 8, 5-chloro-6-(difluoromethoxy)-N-(pyrazolo[1,5-b]pyridazin-3-ylmethyl)nicotinamide] stands 97%.
Under `O=C(NCc1nnn2ccccc12)c1ccc(OC(F)F)c(F)c1` [Example 35, 4-(difluoromethoxy)-3-fluoro-N-([1,2,3]triazolo[1,5-a]pyridin-3-ylmethyl)benzamide] stands 94%; under `Cc1cnn2nnc(CNC(=O)c3cnc(OC(F)F)c(Cl)c3)c2c1` [Example 51, 5-chloro-6-(difluoromethoxy)-N-((5-methyl[1,2,3]triazolo[1,5-b]pyridazin-3-yl)methyl)nicotinamide], 97%; under `O=C(NCc1cnn2ccn(C(F)F)c12)c1cnc(OC(F)F)c(F)c1` [Example 76, 6-(difluoromethoxy)-N-{[1-(difluoromethyl)-1H-imidazo[1,2-b]pyrazol-7-yl]methyl}-5-fluoropyridine-3-carboxamide], 87%.
With `O=C(NCc1nnn2ncccc12)c1ccc(OC(F)F)c(Cl)c1` [Example 30, 3-chloro-4-(difluoromethoxy)-N-([1,2,3]triazolo[1,5-b]pyridazin-3-ylmethyl)benzamide] the figure was 97%.
Regarding `COc1c(F)cc(C(=O)NCc2cnn3ccn(C)c23)cc1F` [Example 62, 3,5-difluoro-4-methoxy-N-((1-methyl-1H-imidazo[1,2-b]pyrazol-7-yl)methyl)benzamide], the inhibition at 10 µM is 95%.
With `O=C(NCc1cnn2ccn(CC(F)(F)F)c12)c1cnc(OC(F)F)c(F)c1` [Example 82, 6-(difluoromethoxy)-5-fluoro-N-{[1-(2,2,2-trifluoroethyl)-1H-imidazo[1,2-b]pyrazol-7-yl]methyl}pyridine-3-carboxamide] the figure was 72%.
In the case of `COc1ncc(C(=O)NCc2cnn3ncccc23)cc1F` [Example 4, 5-fluoro-6-methoxy-N-(pyrazolo[1,5-b]pyridazin-3-ylmethyl)nicotinamide], the inhibition at 10 µM came to 85%.
As to `CCn1ccn2ncc(CNC(=O)c3cnc(OC(F)F)c(Cl)c3)c12` [Example 84, 5-chloro-6-(difluoromethoxy)-N-[(1-ethyl-1H-imidazo[1,2-b]pyrazol-7-yl)methyl]pyridine-3-carboxamide], the inhibition at 10 µM amounted to 95%.
With `O=C(NCc1nnn2ncccc12)c1ccc(OC(F)F)c(F)c1` [Example 33, 4-(difluoromethoxy)-3-fluoro-N-([1,2,3]triazolo[1,5-b]pyridazin-3-ylmethyl)benzamide] the figure was 97%.
